Where a SMILES comes first, the peptide text is derived from it.
Legend:
[1] = derived from FDA website; cited from earlier work
[2] = Lowest ethanol concentration to solubilise Advantame, storage and observation for precipitation (ET03/015); type: physicochemical; settings: Advantame 0.0025% w/v in sesame oil formulation
Procedure: An experiment (ET03/015) was carried out to determine the lowest ethanol concentration required to solubilise Advantame. Table 3 details the batches made with various ethanol concentrations ranging from 0.5% to 3.0% v/v.
These batches were stored at 25° C./60% RH and 40° C./75% RH for up to 4 weeks and observed for any signs of precipitation. There was no precipitation observed over the period assessed. Therefore it was concluded that Advantame can be used as a sweetener and can be solubilised at ethanol concentration of at least as low as 0.5% v/v. i.e. the concentration of ethanol required in the formulation can be reduced by a factor of 20 compared to a sucralose containing formulation.

[3] = Miscibility of alternative solvents with sesame oil; type: physicochemical; settings: range of concentrations (0.5-10%) tested
[4] = Physical stability of Neotame formulations, open bottles standing 2 weeks; type: physicochemical
Procedure: The 25 mg/ml and 100 mg/ml batches were tested for physical stability by opening the bottles and allowing them to stand for 2 weeks to let the ethanol evaporate. This was done as a worst case in-use scenario where the bottle is repeatedly opened and closed multiple times during use. The batches were monitored for any signs of precipitation and the ethanol content measured.

Row | Structure (SMILES) | Acceptable Daily Intake [1] | also measured
1 | COC(=O)[C@H](Cc1ccccc1)NC(=O)[C@@H](N)CC(=O)O [Aspartame] (H-Asp-Phe-OMe) | 50 mg/kg/day | –
2 | COC(=O)[C@H](Cc1ccccc1)NC(=O)[C@H](CC(=O)O)NCCCc1ccc(OC)c(O)c1 [Advantame, N—[N-3-(3-hydroxy-4-methoxyphenyl)propyl-α-L-aspartyl]-L-phenylalanine 1-methyl ester] | 32.8 mg/kg/day | ethanol concentration at which the sweetener can be solubilised [2]: ≤ 0.5 % v/v
3 | O.O.O=C1NS(=O)(=O)c2ccccc21 [Saccharin Dihydrate] | 15 mg/kg/day | –
4 | OC[C@H]1O[C@H](O[C@]2(CCl)O[C@H](CCl)[C@@H](O)[C@@H]2O)[C@H](O)[C@@H](O)[C@H]1Cl [Sucralose, reference compound] | 5 mg/kg/day | –
5 | O=C1NS(=O)(=O)c2ccccc21 [Saccharin] | 15 mg/kg/day | –
6 | CC(O)CO (centres unmarked) [propylene glycol] | – | miscibility with sesame oil [3]: not satisfactory
7 | OCC(O)CO [glycerin] | – | miscibility with sesame oil [3]: not satisfactory
8 | COC(=O)[C@H](Cc1ccccc1)NC(=O)[C@H](CC(=O)O)NCCC(C)(C)C [Neotame, N—[N-(3,3-dimethylbutyl)-L-α-aspartyl]-L-phenylalanine 1-methyl ester] | 0.3 mg/kg/day | concentration at which Neotame can be physically solubilised ([4]; in ethanol): up to 0.01 % w/v; solubility in ethanol ([4]; room temperature): freely soluble

Source: patent publication US12213985B2, “Oral cannabinoid formulations” (Jazz Pharmaceuticals Research UK Limited, priority 2016, dated 2025)
